Target: T1, isoleucyl-tRNA synthetase (IleRS) (Escherichia coli, UniProt P00956)
T1 construct: gene ileS; full-length native enzyme purified from E. coli B; one-subunit enzyme
Assay: global best fit of steady-state ATP-PPi exchange and tRNA aminoacylation rates
Type: biochemical
Conditions: AMP·E (segment 1), competitive with MgATP; pH 7.4, 30 °C, Mg-acetate, 50 mM K-acetate, no chloride; unreliable: fitted range open above (360 <)
Source text: global best fit of steady-state ATP-PPi exchange and tRNA aminoacylation rates on isoleucyl-tRNA synthetase (IleRS)

T1 sequence (P00956 2-938): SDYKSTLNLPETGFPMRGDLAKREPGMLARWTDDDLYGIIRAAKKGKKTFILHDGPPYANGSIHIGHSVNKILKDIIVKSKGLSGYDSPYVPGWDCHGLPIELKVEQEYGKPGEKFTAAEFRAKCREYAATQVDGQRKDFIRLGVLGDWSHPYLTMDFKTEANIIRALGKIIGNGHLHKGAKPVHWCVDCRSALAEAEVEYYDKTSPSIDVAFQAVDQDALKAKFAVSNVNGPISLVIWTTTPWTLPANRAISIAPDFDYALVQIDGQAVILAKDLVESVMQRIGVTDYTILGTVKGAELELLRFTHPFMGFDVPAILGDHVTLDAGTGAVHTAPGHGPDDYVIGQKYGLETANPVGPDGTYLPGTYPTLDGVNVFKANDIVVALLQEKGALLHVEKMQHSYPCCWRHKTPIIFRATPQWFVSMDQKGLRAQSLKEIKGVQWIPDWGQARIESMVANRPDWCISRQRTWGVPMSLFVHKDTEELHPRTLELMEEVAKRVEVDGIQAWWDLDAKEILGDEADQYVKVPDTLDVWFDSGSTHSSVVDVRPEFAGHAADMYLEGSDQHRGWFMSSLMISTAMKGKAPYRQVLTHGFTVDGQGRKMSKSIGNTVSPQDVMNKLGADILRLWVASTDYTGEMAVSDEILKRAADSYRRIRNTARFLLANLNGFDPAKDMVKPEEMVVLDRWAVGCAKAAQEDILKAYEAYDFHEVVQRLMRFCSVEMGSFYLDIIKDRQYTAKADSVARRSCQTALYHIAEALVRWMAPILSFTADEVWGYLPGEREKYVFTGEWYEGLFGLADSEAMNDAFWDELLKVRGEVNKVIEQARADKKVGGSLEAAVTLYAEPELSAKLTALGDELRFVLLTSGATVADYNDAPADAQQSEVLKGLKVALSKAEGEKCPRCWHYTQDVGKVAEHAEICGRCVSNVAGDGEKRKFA

Nc1ncnc2c1ncn2[C@@H]1O[C@H](COP(=O)(O)O)[C@@H](O)[C@H]1O [AMP]
Value: 705 µM
